Experiments:
[1] = ZSF1 rat 28-week in-feed study: body weight, food and water intake; format: in vivo; details: obese ZSF1 rats
Procedure: (§1) The effects of Compound A (“A”) on renal function, plasma triglycerides, plasma cholesterol, kidney collagen I, kidney collagen III, renal histology, glomerular filtration rate, fibrosis score, and mRNA gene expression (profibrotic genes and integrin β3) were evaluated in male obese ZSF1 rats (a hybrid F1 of Zucker diabetic fatty rat and spontaneously hypertensive heart failure rat; a diabetic nephropathy model) when administered as in-feed for 28 weeks. Sixty obese male ZSF1 rats were randomized to five groups: Obese control (n=12), Compound A 60 mpk (n=12), Compound A 200 mpk (n=12), Compound A 400 mpk (n=12), Enalapril 10 mpk (n=12); Eight lean male ZSF1 rats were used for normal control. Renal functional changes were monitored by blood and urine analysis following in-feed dosing for 28 weeks. Compound exposure was also monitored during the study.

[2] = tested on: male obese ZSF1 rats (diabetic nephropathy model); assay: ZSF1 rat study: GFR measurement by FITC-sinistrin clearance; format: in vivo
Procedure: as §1
For the measurement of GFR, a miniaturized device (NIC-Kidney, Mannheim Pharma & Diagnostics, Mannheim, Germany) was used. In brief, the device (batteries, diodes, and microprocessor) containing an optical component was affixed on a depilated region of the back using a double-sided sticky patch (Lohmann GmbH KG, 56567, Neuwied, Germany) under isofluorane anesthesia (3% isoflurane mixed with oxygen). After a resting baseline period of 1-1.5 minutes, a bolus of FITC-sinistrin (5 mg/100 g body weight, dissolved in 0.5 mL sterile isotonic saline) was injected through the tail vein. The rat was then placed in a clean cage for recovery from anesthesia to responsible ambulation. […] The excretion kinetics of FITC-sinistrin was determined using a sampling rate of 60 measurements per minute with an excitation time of 10 milliseconds per measurement for 120 minutes after the injection. One compartment model was used for FITC-sinistrin clearance. After completion of GFR measurement, the device was gently removed from the skin and the rat returned to its home cage.

[3] = obese ZSF1 rats, 200 mpk in-feed, week 28
[4] = obese ZSF1 rats, 400 mpk in-feed, week 28

Structure (SMILES): COc1ccc([C@H](CC(=O)O)N2CCN(CCCc3ccc4c(n3)NCCC4)C2=O)cn1 [Compound A, 3-{2-Oxo-3-[3-(5,6,7,8-tetrahydro-[1,8]naphthyridin-2-yl)-propyl]imidazolidin-1-yl}-3 (S)-(6-methoxy-pyridin-3-yl)-propionic acid]
- Body Weight ([1]; 60 mpk in-feed, week 1): 566.6 ± 7.3 grams
- Food Intake ([1]; 60 mpk in-feed, week 1): 30.5 ± 1.2 grams/24 h
- Water Intake ([1]; 60 mpk in-feed, week 1): 34.6 ± 3.4 mls/24 h
- Body Weight ([1]; 60 mpk in-feed, week 2): 577.4 ± 7.2 grams
- Food Intake ([1]; 60 mpk in-feed, week 2): 26.9 ± 1.0 grams/24 h
- Water Intake ([1]; 60 mpk in-feed, week 2): 34.5 ± 2.2 mls/24 h
- Body Weight ([1]; 60 mpk in-feed, week 4): 599.8 ± 7.4 grams
- Food Intake ([1]; 60 mpk in-feed, week 4): 29.5 ± 2.1 grams/24 h
- Water Intake ([1]; 60 mpk in-feed, week 4): 46.0 ± 5.7 mls/24 h
- Body Weight ([1]; 60 mpk in-feed, week 6): 624.7 ± 9.0 grams
- Food Intake ([1]; 60 mpk in-feed, week 6): 32.8 ± 0.9 grams/24 h
- Water Intake ([1]; 60 mpk in-feed, week 6): 45.8 ± 4.5 mls/24 h
- Body Weight ([1]; 60 mpk in-feed, week 8): 652.0 ± 9.4 grams
- Food Intake ([1]; 60 mpk in-feed, week 8): 34.1 ± 1.1 grams/24 h
- Water Intake ([1]; 60 mpk in-feed, week 8): 59.2 ± 4.5 mls/24 h
- Body Weight ([1]; 60 mpk in-feed, week 10): 678.0 ± 10.9 grams
- Body Weight ([1]; 60 mpk in-feed, week 12): 703.7 ± 11.9 grams
- Food Intake ([1]; 60 mpk in-feed, week 12): 36.7 ± 1.6 grams/24 h
- Water Intake ([1]; 60 mpk in-feed, week 12): 71.5 ± 4.9 mls/24 h
- Body Weight ([1]; 60 mpk in-feed, week 14): 712.1 ± 12.7 grams
- Body Weight ([1]; 60 mpk in-feed, week 16): 733.8 ± 13.2 grams
- Food Intake ([1]; 60 mpk in-feed, week 16): 33.2 ± 1.3 grams/24 h
- Water Intake ([1]; 60 mpk in-feed, week 16): 63.7 ± 4.9 mls/24 h
- Body Weight ([1]; 60 mpk in-feed, week 18): 746.9 ± 14.1 grams
- Body Weight ([1]; 60 mpk in-feed, week 21): 781.1 ± 14.1 grams
- Food Intake ([1]; 60 mpk in-feed, week 21): 34.6 ± 1.6 grams/24 h
- Water Intake ([1]; 60 mpk in-feed, week 21): 64.5 ± 8.5 mls/24 h
- Body Weight ([1]; 60 mpk in-feed, week 24): 808.9 ± 14.6 grams
- Food Intake ([1]; 60 mpk in-feed, week 24): 31.2 ± 1.0 grams/24 h
- Water Intake ([1]; 60 mpk in-feed, week 24): 59.4 ± 4.7 mls/24 h
- Body Weight ([1]; 60 mpk in-feed, week 28): 839.0 ± 14.9 grams
- Food Intake ([1]; 60 mpk in-feed, week 28): 31.6 ± 1.0 grams/24 h
- Water Intake ([1]; 60 mpk in-feed, week 28): 66.5 ± 6.6 mls/24 h
- Body Weight ([1]; 60 mpk in-feed, week −2): 521.3 ± 6.9 grams
- Food Intake ([1]; 60 mpk in-feed, week −2): 38.6 ± 1.0 grams/24 h
- Water Intake ([1]; 60 mpk in-feed, week −2): 60.8 ± 4.5 mls/24 h
- Body Weight ([1]; 200 mpk in-feed, week 1): 568.6 ± 7.4 grams
- Food Intake ([1]; 200 mpk in-feed, week 1): 29.0 ± 1.0 grams/24 h
- Water Intake ([1]; 200 mpk in-feed, week 1): 30.7 ± 1.9 mls/24 h
- Body Weight ([1]; 200 mpk in-feed, week 2): 581.5 ± 7.0 grams
- Food Intake ([1]; 200 mpk in-feed, week 2): 29.2 ± 1.1 grams/24 h
- Water Intake ([1]; 200 mpk in-feed, week 2): 29.2 ± 2.5 mls/24 h
- Body Weight ([1]; 200 mpk in-feed, week 4): 605.9 ± 7.1 grams
- Food Intake ([1]; 200 mpk in-feed, week 4): 30.6 ± 1.0 grams/24 h
- Water Intake ([1]; 200 mpk in-feed, week 4): 33.4 ± 2.0 mls/24 h
- Body Weight ([1]; 200 mpk in-feed, week 6): 631.8 ± 7.7 grams
- Food Intake ([1]; 200 mpk in-feed, week 6): 34.3 ± 1.6 grams/24 h
- Water Intake ([1]; 200 mpk in-feed, week 6): 39.4 ± 2.8 mls/24 h
- Body Weight ([1]; 200 mpk in-feed, week 8): 663.0 ± 7.4 grams
- Food Intake ([1]; 200 mpk in-feed, week 8): 31.8 ± 1.2 grams/24 h
- Water Intake ([1]; 200 mpk in-feed, week 8): 51.4 ± 4.6 mls/24 h
- Body Weight ([1]; 200 mpk in-feed, week 10): 690.6 ± 8.5 grams
- Body Weight ([1]; 200 mpk in-feed, week 12): 718.9 ± 9.3 grams
- Food Intake ([1]; 200 mpk in-feed, week 12): 35.6 ± 0.9 grams/24 h
- Water Intake ([1]; 200 mpk in-feed, week 12): 63.9 ± 4.8 mls/24 h
- Body Weight ([1]; 200 mpk in-feed, week 14): 729.3 ± 11.9 grams
- Body Weight ([1]; 200 mpk in-feed, week 16): 754.1 ± 11.9 grams
- Food Intake ([1]; 200 mpk in-feed, week 16): 33.6 ± 1.5 grams/24 h
- Water Intake ([1]; 200 mpk in-feed, week 16): 57.3 ± 5.0 mls/24 h
- Body Weight ([1]; 200 mpk in-feed, week 18): 772.3 ± 13.1 grams
- Body Weight ([1]; 200 mpk in-feed, week 21): 800.2 ± 13.9 grams
- Food Intake ([1]; 200 mpk in-feed, week 21): 35.6 ± 0.9 grams/24 h
- Water Intake ([1]; 200 mpk in-feed, week 21): 58.1 ± 3.6 mls/24 h
- Body Weight ([1]; 200 mpk in-feed, week 24): 825.7 ± 14.7 grams
- Food Intake ([1]; 200 mpk in-feed, week 24): 31.7 ± 1.2 grams/24 h
- Water Intake ([1]; 200 mpk in-feed, week 24): 61.8 ± 3.5 mls/24 h
- Body Weight ([1]; 200 mpk in-feed, week 28): 848.1 ± 16.4 grams
- Food Intake ([1]; 200 mpk in-feed, week 28): 33.3 ± 1.2 grams/24 h
- Water Intake ([1]; 200 mpk in-feed, week 28): 70.5 ± 5.6 mls/24 h
- Body Weight ([1]; 200 mpk in-feed, week −2): 520.6 ± 6.4 grams
- Food Intake ([1]; 200 mpk in-feed, week −2): 37.7 ± 1.4 grams/24 h
- Water Intake ([1]; 200 mpk in-feed, week −2): 59.1 ± 5.9 mls/24 h
- Body Weight ([1]; 400 mpk in-feed, week 1): 568.3 ± 6.5 grams
- Food Intake ([1]; 400 mpk in-feed, week 1): 30.0 ± 1.6 grams/24 h
- Water Intake ([1]; 400 mpk in-feed, week 1): 37.6 ± 2.8 mls/24 h
- Body Weight ([1]; 400 mpk in-feed, week 2): 582.8 ± 6.5 grams
- Food Intake ([1]; 400 mpk in-feed, week 2): 32.0 ± 1.2 grams/24 h
- Water Intake ([1]; 400 mpk in-feed, week 2): 40.3 ± 3.1 mls/24 h
- Body Weight ([1]; 400 mpk in-feed, week 4): 604.1 ± 7.2 grams
- Food Intake ([1]; 400 mpk in-feed, week 4): 33.6 ± 0.9 grams/24 h
- Water Intake ([1]; 400 mpk in-feed, week 4): 45.0 ± 3.7 mls/24 h
- Body Weight ([1]; 400 mpk in-feed, week 6): 631.8 ± 8.9 grams
- Food Intake ([1]; 400 mpk in-feed, week 6): 34.6 ± 1.2 grams/24 h
- Water Intake ([1]; 400 mpk in-feed, week 6): 49.9 ± 4.8 mls/24 h
- Body Weight ([1]; 400 mpk in-feed, week 8): 654.5 ± 10.6 grams
- Food Intake ([1]; 400 mpk in-feed, week 8): 34.2 ± 1.4 grams/24 h
- Water Intake ([1]; 400 mpk in-feed, week 8): 62.2 ± 5.6 mls/24 h
- Body Weight ([1]; 400 mpk in-feed, week 10): 676.5 ± 12.7 grams
- Body Weight ([1]; 400 mpk in-feed, week 12): 704.8 ± 12.8 grams
- Food Intake ([1]; 400 mpk in-feed, week 12): 35.7 ± 0.7 grams/24 h
- Water Intake ([1]; 400 mpk in-feed, week 12): 63.5 ± 5.3 mls/24 h
- Body Weight ([1]; 400 mpk in-feed, week 14): 704.4 ± 14.6 grams
- Body Weight ([1]; 400 mpk in-feed, week 16): 739.3 ± 15.0 grams
- Food Intake ([1]; 400 mpk in-feed, week 16): 33.6 ± 0.7 grams/24 h
- Water Intake ([1]; 400 mpk in-feed, week 16): 63.0 ± 3.9 mls/24 h
- Body Weight ([1]; 400 mpk in-feed, week 18): 757.9 ± 16.9 grams
- Body Weight ([1]; 400 mpk in-feed, week 21): 791.2 ± 18.4 grams
- Food Intake ([1]; 400 mpk in-feed, week 21): 36.0 ± 1.2 grams/24 h
- Water Intake ([1]; 400 mpk in-feed, week 21): 59.3 ± 4.4 mls/24 h
- Body Weight ([1]; 400 mpk in-feed, week 24): 823.8 ± 18.9 grams
- Food Intake ([1]; 400 mpk in-feed, week 24): 33.3 ± 1.5 grams/24 h
- Water Intake ([1]; 400 mpk in-feed, week 24): 67.2 ± 4.8 mls/24 h
- Body Weight ([1]; 400 mpk in-feed, week 28): 852.1 ± 19.5 grams
- Food Intake ([1]; 400 mpk in-feed, week 28): 32.1 ± 1.7 grams/24 h
- Water Intake ([1]; 400 mpk in-feed, week 28): 80.1 ± 4.6 mls/24 h
- Body Weight ([1]; 400 mpk in-feed, week −2): 522.3 ± 7.1 grams
- Food Intake ([1]; 400 mpk in-feed, week −2): 37.7 ± 1.1 grams/24 h
- Water Intake ([1]; 400 mpk in-feed, week −2): 57.2 ± 4.9 mls/24 h
- effect on body weight (BW) ([1]; in-feed for 28 weeks): no significant effect
- effect on food intake (FI) ([1]; in-feed for 28 weeks): no significant effect
- effect on water intake (WI) ([1]; in-feed for 28 weeks): no significant effect
- effect on glomerular filtration rate ([2]; 60 mpk, 200 mpk and 400 mpk at weeks 28-30): no significant effect
- Glomerular Filtration Rate ([2]; ZSF-1 rats vs untreated obese ZSF-1 rats (summary)): non-statistically significant improvements in glomerular filtration rate
- Glomerular Filtration Rate ([2]; obese ZSF1 rats, 60 mpk in-feed, week 28): 609.8 ± 42.1 uLs/Min/100 gm BW
- FITC-sinistrin clearance, % change of improvement compared to Obese Vehicle group [2, 3]: 8.8%
- Glomerular Filtration Rate [2, 3]: 663.2 ± 50.6 uLs/Min/100 gm BW
- FITC-sinistrin clearance, % change of improvement compared to Obese Vehicle group [2, 4]: 14.4%
- Glomerular Filtration Rate [2, 4]: 697.5 ± 37.9 uLs/Min/100 gm BW
